{"source": "paper PMC9377232", "about": "(Journal of Enzyme Inhibition and Medicinal Chemistry, 2022)", "key": {"COX-2 mRNA": {"tested_on": "COX-2 mRNA", "experiment": "Real-time PCR of inflamed paw tissue, COX-2 gene expression", "format": "in vivo, Mouse", "conditions": "paw tissue after formalin test; 2^-ΔΔCt method; means ± SD"}, "stomach": {"tested_on": "stomach", "experiment": "Acute ulcerogenic side effect", "format": "in vivo", "conditions": "mice; for Abou Zeit Har Score (ulcer index): intraperitoneal, indomethacin 5 mg/kg, celecoxib 20 mg/kg, means ± SD; for Gastric mucosa finding (ulcers) on examination: stomach examined after sacrifice"}, "LOX mRNA": {"tested_on": "LOX mRNA", "experiment": "Real-time PCR of inflamed paw tissue, LOX gene expression", "format": "in vivo, Mouse", "conditions": "paw tissue after formalin test, 2^-ΔΔCt method, means ± SD"}, "COX-1 mRNA": {"tested_on": "COX-1 mRNA", "experiment": "Real-time PCR of inflamed paw tissue, COX-1 gene expression", "format": "in vivo, Mouse", "conditions": "paw tissue after formalin test; 2^-ΔΔCt method; means ± SD"}}, "note": "Marks after values point to notes of the source that are not given here.", "data": [{"compound": "COc1ccc2c(c1)c(CC(=O)O)c(C)n2C(=O)c1ccc(Cl)cc1", "note": "[Indomethacin]", "values": [{"measurement": "COX-2 mRNA relative expression (real-time PCR)", "setting": "COX-2 mRNA", "result": "0.17 ± 0.01^a"}, {"measurement": "Abou Zeit Har Score (ulcer index)", "setting": "stomach", "result": "11.2 ± 1.64"}, {"measurement": "Gastric mucosa finding (ulcers) on examination", "setting": "stomach", "result": "large ulcers"}, {"measurement": "LOX mRNA relative expression (real-time PCR)", "setting": "LOX mRNA", "result": "1.32 ± 0.01"}, {"measurement": "LOX mRNA relative expression (real-time PCR)", "setting": "LOX mRNA; listed as indomethacin", "result": "not affected"}, {"measurement": "COX-1 mRNA relative expression (real-time PCR)", "setting": "COX-1 mRNA", "result": "0.82 ± 0.02"}]}, {"compound": "Cc1ccc(-c2cc(C(F)(F)F)nn2-c2ccc(S(N)(=O)=O)cc2)cc1", "note": "[Celecoxib]", "values": [{"measurement": "Abou Zeit Har Score (ulcer index)", "setting": "stomach", "result": "0.6 ± 0.58"}, {"measurement": "Gastric mucosa finding (ulcers) on examination", "setting": "stomach", "result": "preserved the integrity of the mucosa"}]}]}
